As a reminder, the Kd is a measure of binding affinity in units of concentration. What is called IC50 is the concentration at which inhibition is half-maximal.

The results in this text go back to patent publication US20130035326A1 (AMBIT BIOSCIENCES CORPORATION, priority 2009, published 2013).

For one experiment, the target named is T1, FLT3 kinase (Homo sapiens, UniProt P36888).
T1 construct: made in house; host or cells: T7 phage display or HEK-293 cells
T1 sequence (P36888 27-993): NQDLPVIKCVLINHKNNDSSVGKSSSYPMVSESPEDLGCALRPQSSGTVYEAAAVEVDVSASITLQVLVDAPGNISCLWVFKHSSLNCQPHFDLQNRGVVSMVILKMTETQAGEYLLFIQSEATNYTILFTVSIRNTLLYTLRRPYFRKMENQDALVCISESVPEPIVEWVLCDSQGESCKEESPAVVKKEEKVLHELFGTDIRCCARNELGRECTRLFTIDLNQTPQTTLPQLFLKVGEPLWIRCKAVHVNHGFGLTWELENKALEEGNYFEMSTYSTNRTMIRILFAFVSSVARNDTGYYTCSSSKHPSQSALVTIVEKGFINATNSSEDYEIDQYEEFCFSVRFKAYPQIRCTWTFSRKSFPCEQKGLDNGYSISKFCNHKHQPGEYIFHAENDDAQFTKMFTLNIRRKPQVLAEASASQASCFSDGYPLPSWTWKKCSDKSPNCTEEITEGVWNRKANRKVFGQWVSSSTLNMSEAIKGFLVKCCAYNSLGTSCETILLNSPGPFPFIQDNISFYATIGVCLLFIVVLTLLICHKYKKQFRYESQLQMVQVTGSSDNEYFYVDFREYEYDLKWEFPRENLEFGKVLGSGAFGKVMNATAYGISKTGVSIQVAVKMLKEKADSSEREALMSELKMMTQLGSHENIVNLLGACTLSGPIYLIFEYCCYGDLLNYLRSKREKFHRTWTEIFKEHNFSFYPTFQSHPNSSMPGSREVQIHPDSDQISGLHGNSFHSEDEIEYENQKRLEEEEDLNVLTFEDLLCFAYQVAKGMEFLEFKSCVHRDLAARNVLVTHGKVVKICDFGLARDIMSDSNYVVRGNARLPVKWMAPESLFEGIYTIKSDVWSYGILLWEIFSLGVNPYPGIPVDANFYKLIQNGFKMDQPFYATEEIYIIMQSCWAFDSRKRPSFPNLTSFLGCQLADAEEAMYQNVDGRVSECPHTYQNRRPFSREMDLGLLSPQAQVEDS
In words: Competition binding assay, FLT3 Kd. A digest of the protocol:
(§1)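 Steps: biotinylated ligand loaded on streptavidin magnetic beads 30 min; beads blocked with biotin; kinase, beads and compound combined 1 hour at room temperature; beads washed, eluted 30 min with 0.5 μM free ligand; eluted kinase measured by quantitative PCR. Kd derived from eleven-point threefold dilutions.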

The target in the next experiment is T2, KIT kinase (Homo sapiens, UniProt P10721).
T2 construct: made in house; host or cells: T7 phage display or HEK-293 cells
T2 sequence (P10721 26-976): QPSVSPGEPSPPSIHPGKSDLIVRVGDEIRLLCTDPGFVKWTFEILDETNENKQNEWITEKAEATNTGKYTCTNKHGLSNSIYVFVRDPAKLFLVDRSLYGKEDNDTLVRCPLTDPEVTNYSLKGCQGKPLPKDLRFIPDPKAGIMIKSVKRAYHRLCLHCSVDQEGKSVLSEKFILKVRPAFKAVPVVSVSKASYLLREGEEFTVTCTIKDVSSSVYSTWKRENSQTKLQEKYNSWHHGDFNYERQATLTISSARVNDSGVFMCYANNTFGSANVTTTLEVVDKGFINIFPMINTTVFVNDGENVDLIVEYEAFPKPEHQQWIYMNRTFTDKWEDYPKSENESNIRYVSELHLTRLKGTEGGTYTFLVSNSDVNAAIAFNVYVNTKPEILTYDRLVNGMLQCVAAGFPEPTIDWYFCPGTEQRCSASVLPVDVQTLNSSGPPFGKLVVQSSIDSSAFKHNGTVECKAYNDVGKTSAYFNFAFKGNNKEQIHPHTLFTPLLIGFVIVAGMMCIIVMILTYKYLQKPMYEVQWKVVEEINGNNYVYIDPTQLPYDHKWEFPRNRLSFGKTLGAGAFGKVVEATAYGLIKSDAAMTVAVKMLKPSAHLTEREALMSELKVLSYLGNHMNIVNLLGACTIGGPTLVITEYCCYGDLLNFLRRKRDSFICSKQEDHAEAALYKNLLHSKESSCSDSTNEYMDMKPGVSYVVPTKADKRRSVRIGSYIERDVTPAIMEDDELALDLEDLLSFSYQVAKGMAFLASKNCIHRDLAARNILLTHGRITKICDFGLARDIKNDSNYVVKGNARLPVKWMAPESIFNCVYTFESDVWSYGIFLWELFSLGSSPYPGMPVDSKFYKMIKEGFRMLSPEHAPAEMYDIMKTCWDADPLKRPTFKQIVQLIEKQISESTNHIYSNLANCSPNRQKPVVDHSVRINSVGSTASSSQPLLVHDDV
Put plainly: Competition binding assay, KIT Kd. A digest of the protocol:
as §1

For a further experiment, the target named is T3, CSF-1R kinase (Homo sapiens, UniProt P07333).
T3 construct: made in house; host or cells: T7 phage display or HEK-293 cells
T3 sequence (P07333 20-972): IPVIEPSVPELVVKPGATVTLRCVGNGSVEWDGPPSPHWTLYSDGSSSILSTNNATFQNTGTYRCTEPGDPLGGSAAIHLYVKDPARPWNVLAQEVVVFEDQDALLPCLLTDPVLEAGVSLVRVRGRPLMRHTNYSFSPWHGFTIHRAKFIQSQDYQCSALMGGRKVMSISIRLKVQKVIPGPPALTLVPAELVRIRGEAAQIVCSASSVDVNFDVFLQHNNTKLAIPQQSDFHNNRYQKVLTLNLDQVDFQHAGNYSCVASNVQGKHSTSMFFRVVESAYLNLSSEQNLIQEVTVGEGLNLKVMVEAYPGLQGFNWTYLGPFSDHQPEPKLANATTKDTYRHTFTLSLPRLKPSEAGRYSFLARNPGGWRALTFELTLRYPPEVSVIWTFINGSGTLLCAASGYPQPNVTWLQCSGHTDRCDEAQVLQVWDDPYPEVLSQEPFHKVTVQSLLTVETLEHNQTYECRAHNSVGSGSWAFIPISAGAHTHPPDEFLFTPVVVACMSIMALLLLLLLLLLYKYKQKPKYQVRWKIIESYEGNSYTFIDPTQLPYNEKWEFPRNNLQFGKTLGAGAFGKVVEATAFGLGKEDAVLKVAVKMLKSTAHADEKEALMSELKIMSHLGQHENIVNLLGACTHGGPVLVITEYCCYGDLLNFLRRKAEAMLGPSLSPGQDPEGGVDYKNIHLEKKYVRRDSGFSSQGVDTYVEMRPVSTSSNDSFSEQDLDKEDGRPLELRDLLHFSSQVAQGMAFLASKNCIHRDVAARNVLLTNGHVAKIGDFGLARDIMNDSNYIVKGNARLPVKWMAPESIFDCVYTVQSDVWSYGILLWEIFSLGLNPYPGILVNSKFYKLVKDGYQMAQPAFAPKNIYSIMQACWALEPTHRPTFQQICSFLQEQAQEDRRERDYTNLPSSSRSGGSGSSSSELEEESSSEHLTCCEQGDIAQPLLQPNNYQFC
In words: Competition binding assay, CSF-1R Kd. A digest of the protocol: as §1

For the next experiment, the system named is MV4-11 cells. Put plainly: MV4-11 cell proliferation assay (Alamar Blue). It is filed as cell-based. Particulars: Homo sapiens, MV4-11, 72 h, 3 days incubation. A digest of the protocol:
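Flt3-ITD MV4-11 cells were serum-starved overnight in Iscove's with 0.5% FBS, then given compound at 9 half-log concentrations (0.5% DMSO) for 3 days at 37° C. Alamar Blue reduction was read after 3 h by fluorescence (560/590 nm). IC50 is the mean of duplicates versus negative control.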

For experiment [1], the target named is kinase panel containing either 359 or 386 distinct kinases. Put plainly: Selectivity score S10 from competition binding against a panel of kinases. The note with it: compounds at 10 μM; panel of 386 distinct kinases. A digest of the protocol: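 Compounds were tested at 10 μM in competition binding against T7 phage-fused or HEK-293-expressed DNA-tagged kinases with immobilized affinity ligands, 1 h at room temperature. Bound kinase was quantified by qPCR as percent of DMSO control; S10 is the fraction of distinct kinases (mutants excluded) with POC below 10.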

For `CC(C)(c1cc(NC(=O)Cc2ccc(-c3ccc(NCCN4CCOCC4)nc3)cc2)no1)C(F)(F)F.CS(=O)(=O)O` [Example 109, 4-(2-(5-(4-(2-oxo-2-(5-(1,1,1-trifluoro-2-methylpropan-2-yl)isoxazol-3-ylamino)ethyl)phenyl)pyridin-2-ylamino)ethyl)morpholin-4-ium methanesulfonate], the dissociation constant Kd at FLT3 kinase is at most 1 nM; at KIT kinase, 1 to 10 nM; on CSF-1R kinase, at most 10 nM. This molecule also came in with a half-inhibitory concentration (IC50) in the experiment on MV4-11 cells of at most 1 nM. The “Kinase specificty: S(10)-386 panel” value in experiment [1] is “B (0.1<B≦0.2 nM)”.
Regarding `CNc1ccc(-c2ccc(CC(=O)Nc3cc(C(C)(C)C)on3)cc2)cn1.CS(=O)(=O)O` [Example 110, 5-(4-(2-(5-tert-butylisoxazol-3-ylamino)-2-oxoethyl)phenyl)-N-methylpyridin-2-aminium methanesulfonate], the Kd was at most 1 nM at FLT3 kinase, 1 to 10 nM on KIT kinase and at most 10 nM on CSF-1R kinase. Further, the IC50 with MV4-11 cells is at most 1 nM. Also, the “Kinase specificty: S(10)-386 panel” value in experiment [1] is “B (0.1<B≦0.2 nM)”.
With `CCNc1ccc(-c2ccc(CC(=O)Nc3cc(C(C)(C)C)on3)cc2)cn1.CS(=O)(=O)O` [Example 111, 5-(4-(2-(5-tert-butylisoxazol-3-ylamino)-2-oxoethyl)phenyl)-N-ethylpyridin-2-aminium methanesulfonate], the Kd is at most 1 nM at FLT3 kinase, at most 1 nM on KIT kinase and at most 10 nM at CSF-1R kinase. The molecule also came in with an IC50 in the experiment with MV4-11 cells of at most 1 nM. Besides, the “Kinase specificty: S(10)-386 panel” value in experiment [1] is reported as “A (A≦0.1)”.
Take `CC1(c2cc(NC(=O)Nc3ccc(-c4ccc(N)nc4)cc3)no2)CC1(F)F.CS(=O)(=O)O` (stereo not drawn) [Example 112, 5-(4-(3-(5-(2,2-difluoro-1-methylcyclopropyl)isoxazol-3-yl)ureido)phenyl)pyridin-2-aminium methanesulfonate]: the dissociation constant (Kd) on FLT3 kinase was at most 1 nM; at KIT kinase it was 1 to 10 nM; at CSF-1R kinase, at most 10 nM. Besides, the IC50 with MV4-11 cells lay within 1 to 10 nM. For the same molecule, the “Kinase specificty: S(10)-386 panel” value in experiment [1] is recorded as “A (A≦0.1)”.
For the molecule `CS(=O)(=O)O.Cc1nc(-c2ccc(CC(=O)Nc3cc(C(C)(C)C)on3)cc2)cnc1N` [Example 113, 5-(4-(2-(5-tert-butylisoxazol-3-ylamino)-2-oxoethyl)phenyl)-3-methylpyrazin-2-aminium methanesulfonate], the figures for the Kd on FLT3 kinase, on KIT kinase and on CSF-1R kinase were at most 1 nM, 1 to 10 nM and at most 10 nM, respectively. This molecule also gave a 50% inhibitory concentration (IC50) in the experiment on MV4-11 cells of at most 1 nM. Also, the “Kinase specificty: S(10)-386 panel” value in experiment [1] is given as “B (0.1<B≦0.2 nM)”.
`CC(C)(C)c1cc(NC(=O)Cc2ccc(-c3cnc(N)c(Cl)c3)cc2)no1.CS(=O)(=O)O` [Example 115, 5-(4-(2-(5-tert-butylisoxazol-3-ylamino)-2-oxoethyl)phenyl)-3-chloropyridin-2-aminium methanesulfonate]: the equilibrium dissociation constant (Kd) on FLT3 kinase was 1 to 10 nM; on KIT kinase, 1 to 10 nM; on CSF-1R kinase, at most 10 nM. Besides, the half-maximal inhibitory concentration (IC50) in the experiment on MV4-11 cells was at most 1 nM. Further, the “Kinase specificty: S(10)-386 panel” value in experiment [1] was “B (0.1<B≦0.2 nM)”.
As to `CC(C)(C)c1cc(NC(=O)Cc2ccc(-c3cnc(N)c(C(F)(F)F)c3)cc2)no1.CS(=O)(=O)O` [Example 116, 5-(4-(2-(5-tert-butylisoxazol-3-ylamino)-2-oxoethyl)phenyl)-3-(trifluoromethyl)pyridin-2-aminium methanesulfonate], the equilibrium dissociation constant (Kd) on FLT3 kinase is at most 1 nM; on KIT kinase, 1 to 10 nM; on CSF-1R kinase, at most 10 nM. The concentration for half-maximal inhibition (IC50) with MV4-11 cells is at most 1 nM. Also, the “Kinase specificty: S(10)-386 panel” value in experiment [1] is given as “B (0.1<B≦0.2 nM)”.
Consider `CN1C(C)(C)CC(=CCNc2ccc(-c3ccc(CC(=O)Nc4cc(C(C)(C)C)on4)cc3)cn2)CC1(C)C` [Example 117, N-(5-tert-butylisoxazol-3-yl)-2-(4-(6-(2-(1,2,2,6,6-pentamethylpiperidin-4-ylidene)ethylamino)pyridin-3-yl)phenyl)acetamide], for which the Kd on FLT3 kinase is at most 1 nM; on KIT kinase it was 1 to 10 nM; at CSF-1R kinase it was at most 10 nM. For the same molecule, the IC50 with MV4-11 cells was at most 1 nM. The “Kinase specificty: S(10)-386 panel” value in experiment [1] is reported as “B (0.1<B≦0.2 nM)”.
In the case of `CC(C)(F)c1cc(NC(=O)Cc2ccc(-c3ccc(NCCN4CCOCC4)nc3)cc2)on1` [Example 118, N-(3-(2-fluoropropan-2-yl)isoxazol-5-yl)-2-(4-(6-(2-morpholinoethylamino)pyridin-3-yl)phenyl)acetamide], the values for the Kd at FLT3 kinase, on KIT kinase and on CSF-1R kinase were at most 1 nM, at most 1 nM and at most 10 nM, respectively. In the experiment with MV4-11 cells, this molecule had an IC50 of 10 to 100 nM. For the same molecule, in experiment [1], the “Kinase specificty: S(10)-386 panel” value is given as “A (A≦0.1)”.
For the molecule `CC(C)(C)c1cc(NC(=O)Cc2ccc(-c3ccc(N)nc3F)cc2)on1.CS(=O)(=O)O` [Example 119, 5-(4-(2-(3-tert-butylisoxazol-5-ylamino)-2-oxoethyl)phenyl)-6-fluoropyridin-2-aminium methanesulfonate], the dissociation constant Kd at FLT3 kinase was at most 1 nM; on KIT kinase, 1 to 10 nM; on CSF-1R kinase, at most 10 nM. The same molecule showed an IC50 in the experiment with MV4-11 cells of at most 1 nM. For the same molecule, the “Kinase specificty: S(10)-386 panel” value in experiment [1] was “A (A≦0.1)”.
For the molecule `CS(=O)(=O)O.Nc1ccc(-c2ccc(NC(=O)Nc3cc(C4(C(F)(F)F)CCC4)on3)cc2)cn1` [Example 121, 5-(4-(3-(5-(1-(trifluoromethyl)cyclobutyl)isoxazol-3-yl)ureido)phenyl)pyridin-2-aminium methanesulfonate], the dissociation constant (Kd) on FLT3 kinase is 1 to 10 nM; at KIT kinase it was 1 to 10 nM; at CSF-1R kinase, 10 to 100 nM. For the same molecule, in the experiment with MV4-11 cells, the 50% inhibitory concentration (IC50) was at most 1 nM. The “Kinase specificty: S(10)-386 panel” value in experiment [1] is reported as “A (A≦0.1)”.
Consider `CC1(CCNc2ccc(-c3ccc(CC(=O)Nc4cc(C(C)(C)C)on4)cc3)cn2)COC1` [Example 122, N-(5-tert-butylisoxazol-3-yl)-2-(4-(6-(2-(3-methyloxetan-3-yl)ethylamino)pyridin-3-yl)phenyl)acetamide], for which the dissociation constant (Kd) was 1 to 10 nM at FLT3 kinase, 10 to 100 nM at KIT kinase and 100 to 500 nM at CSF-1R kinase. The 50% inhibitory concentration (IC50) in the experiment with MV4-11 cells lay within 10 to 100 nM. In addition, the “Kinase specificty: S(10)-386 panel” value in experiment [1] is listed as “A (A≦0.1)”.
`CC(C)(C)c1cc(NC(=O)Cc2c(F)cc(-c3ccc(N)nc3)cc2F)no1.CS(=O)(=O)O` [Example 123, 5-(4-(2-(5-tert-butylisoxazol-3-ylamino)-2-oxoethyl)-3,5-difluorophenyl)pyridin-2-aminium methanesulfonate]: the Kd on FLT3 kinase was at most 1 nM; on KIT kinase, 1 to 10 nM; on CSF-1R kinase, at most 10 nM. The IC50 in the experiment on MV4-11 cells was at most 1 nM. Also, in experiment [1], the “Kinase specificty: S(10)-386 panel” value is “B (0.1<B≦0.2 nM)”.
For the molecule `Nc1ccc(-c2ccc(CC(=O)Nc3cc(C4(C(F)(F)F)CCC4)on3)cc2)cn1` [Example 124, 2-(4-(6-aminopyridin-3-yl)phenyl)-N-(5-(1-(trifluoromethyl)cyclobutyl)isoxazol-3-yl)acetamide], the Kd at FLT3 kinase is at most 1 nM; on KIT kinase it was 1 to 10 nM; on CSF-1R kinase, at most 10 nM. The half-maximal inhibitory concentration (IC50) in the experiment on MV4-11 cells was at most 1 nM. The “Kinase specificty: S(10)-386 panel” value in experiment [1] is given as “B (0.1<B≦0.2 nM)”.
Consider `CC(C)(C)c1cc(NC(=O)Cc2ccc(-c3ccc(N)nc3)c(F)c2)no1.CS(=O)(=O)O` [Example 125, 5-(4-(2-(5-tert-butylisoxazol-3-ylamino)-2-oxoethyl)-2-fluorophenyl)pyridin-2-aminium methanesulfonate], for which the Kd at FLT3 kinase was at most 1 nM; on KIT kinase, at most 1 nM; on CSF-1R kinase, at most 10 nM. Besides, the IC50 in the experiment with MV4-11 cells is at most 1 nM. For the same molecule, the “Kinase specificty: S(10)-386 panel” value in experiment [1] is “A (A≦0.1)”.
